≈ marks a conversion by molar mass, not a printed value.
tested on: M. catarrhalis A894; assay: MIC determination by microdilution in cation-adjusted Mueller-Hinton Broth (NCCLS); type: cell-based; details: Moraxella catarrhalis, pH 7.2-7.3
Procedure: These assays have been performed following the description given in “Methods for dilution Antimicrobial Susceptibility Tests for Bacteria that Grow Aerobically, 4th ed.; Approved standard: NCCLS Document M7-A4; National Committee for Clinical Laboratory Standards: Villanova, Pa., USA, 1997”. Minimal inhibitory concentrations (MICs; mg/l) were determined in cation-adjusted Mueller-Hinton Broth (BBL) by a microdilution method following NCCLS guidelines (National Committee for Clinical Laboratory Standards. Methods for Dilution Antimicrobial Susceptibility). The pH of the test medium was 7.2-7.3. All Example compounds were tested against several Gram-positive and Gram-negative bacteria.

`COc1ccc2ncnc(OC3CCN(C[C@@H]4CN(c5ccc6c(c5)NC(=O)CS6)C(=O)O4)CC3)c2c1` [Example 20, 6-{(R)-5-[4-(6-methoxy-quinazolin-4-yloxy)-piperidin-1-ylmethyl]-2-oxo-oxazolidin-3-yl}-4H-benzo[1,4]thiazin-3-one] and `COc1ccc2ncnc(O[C@@H]3CCN(C[C@@H]4CN(c5ccc6c(c5)NC(=O)CS6)C(=O)O4)C3)c2c1` [Example 2, 6-{(R)-5-[(R)-3-(6-methoxy-quinazolin-4-yloxy)-pyrrolidin-1-ylmethyl]-2-oxo-oxazolidin-3-yl}-4H-benzo[1,4]thiazin-3-one] cannot be ordered by MIC: no more than 0.031 mg/L for the first, no more than 0.031 mg/L for the second.

Compared with `COc1ccc2ncnc(O[C@H]3C[C@@H](Cn4ccnn4)N(C[C@@H]4CN(c5ccc6c(c5)NC(=O)CS6)C(=O)O4)C3)c2c1` [Example 19, 6-{(R)-5-[(2S,4S)-4-(6-methoxy-quinazolin-4-yloxy)-2-[1,2,3]triazol-1-ylmethyl-pyrrolidin-1-ylmethyl]-2-oxo-oxazolidin-3-yl}-4H-benzo[1,4]thiazin-3-one], `COc1ccc2ncnc(O[C@H]3C[C@@H](CO)N(C[C@@H]4CN(c5ccc6c(c5)NC(=O)CS6)C(=O)O4)C3)c2c1` [Example 5, 6-{(R)-5-[(2S,4S)-2-hydroxymethyl-4-(6-methoxy-quinazolin-4-yloxy)-pyrrolidin-1-ylmethyl]-2-oxo-oxazolidin-3-yl}-4H-benzo[1,4]thiazin-3-one] is lower in MIC: 0.063 mg/L (≈ 0.107 µM) for the first, no more than 0.031 mg/L for the second.

Going from `COc1ccc2ncnc(O[C@H]3C[C@@H](CNC(C)=O)N(C[C@@H]4CN(c5ccc6c(c5)NC(=O)CS6)C(=O)O4)C3)c2c1` [Example 17, N-{(2S,4S)-4-(6-methoxy-quinazolin-4-yloxy)-1-[(R)-2-oxo-3-(3-oxo-3,4-dihydro-2H-benzo[1,4]thiazin-6-yl)-oxazolidin-5-ylmethyl]-pyrrolidin-2-ylmethyl}-acetamide] to `COc1ccc2ncnc(O[C@H]3C[C@@H](CN=[N+]=[N-])N(C[C@@H]4CN(c5ccc6c(c5)NC(=O)CS6)C(=O)O4)C3)c2c1` [Example 6, 6-{(R)-5-[(2S,4S)-2-azidomethyl-4-(6-methoxy-quinazolin-4-yloxy)-pyrrolidin-1-ylmethyl]-2-oxo-oxazolidin-3-yl}-4H-benzo[1,4]thiazin-3-one], the MIC falls from 0.25 mg/L (≈ 0.432 µM) to no more than 0.031 mg/L.

Going from `COc1ccc2nccc(NC3CN(C[C@@H]4CN(c5ccc6c(c5)NC(=O)CS6)C(=O)O4)C3)c2c1` [Example 37, 6-{(R)-5-[3-(6-methoxy-quinolin-4-ylamino)-azetidin-1-ylmethyl]-2-oxo-oxazolidin-3-yl}-4H-benzo[1,4]thiazin-3-one] to `O=C1CSc2ccc(N3C[C@@H](CN4CC(Nc5ccnc6ccc(F)cc56)C4)OC3=O)cc2N1` [Example 39, 6-{(R)-5-[3-(6-fluoro-quinolin-4-ylamino)-azetidin-1-ylmethyl]-2-oxo-oxazolidin-3-yl}-4H-benzo[1,4]thiazin-3-one], the MIC falls from 0.125 mg/L (≈ 0.254 µM) to 0.063 mg/L (≈ 0.131 µM) (2-fold).

`COc1ccc2ncc(F)c(CNC3CN(C[C@@H]4CN(c5ccc6c(c5)NC(=O)CO6)C(=O)O4)C3)c2n1` [Example 26, 6-((R)-5-{3-[(3-fluoro-6-methoxy-[1,5]naphthyridin-4-ylmethyl)-amino]-azetidin-1-ylmethyl}-2-oxo-oxazolidin-3-yl)-4H-benzo[1,4]oxazin-3-one] and `COc1ccc2nccc(CNC3CN(C[C@@H]4CN(c5ccc6c(c5)NC(=O)CO6)C(=O)O4)C3)c2n1` [Example 27, 6-((R)-5-{3-[(6-methoxy-[1,5]naphthyridin-4-ylmethyl)-amino]-azetidin-1-ylmethyl}-2-oxo-oxazolidin-3-yl)-4H-benzo[1,4]oxazin-3-one] cannot be ordered by MIC: no more than 0.031 mg/L for the first, no more than 0.031 mg/L for the second.

First: COc1ccc2nccc(CNC3CN(C[C@@H]4CN(c5ccc6c(c5)NC(=O)CO6)C(=O)O4)C3)c2c1 [Example 29, 6-((R)-5-{3-[(6-methoxy-quinolin-4-ylmethyl)-amino]-azetidin-1-ylmethyl}-2-oxo-oxazolidin-3-yl)-4H-benzo[1,4]oxazin-3-one]
Second: COc1ccc2nccc(NC3CN(C[C@@H]4CN(c5ccc6c(c5)NC(=O)CS6)C(=O)O4)C3)c2n1 [Example 36, 6-{(R)-5-[3-(6-methoxy-[1,5]naphthyridin-4-ylamino)-azetidin-1-ylmethyl]-2-oxo-oxazolidin-3-yl}-4H-benzo[1,4]thiazin-3-one]
The MIC of the first is higher: 0.063 mg/L (≈ 0.129 µM) for the first, no more than 0.031 mg/L for the second.

`COc1ccc2nccc(/C=C/C3CCN(C[C@@H]4CN(c5ccc6c(c5)NC(=O)CS6)C(=O)O4)C3)c2n1` (mixture of isomers) [Example 9, 6-((R)-5-{(RS)-3-[(E)-2-(6-methoxy-[1,5]naphthyridin-4-yl)-vinyl]-pyrrolidin-1-ylmethyl}-2-oxo-oxazolidin-3-yl)-4H-benzo[1,4]thiazin-3-one] and `COc1ccc2nccc(OC3CN(C[C@@H]4CN(c5ccc6c(c5)NC(=O)CS6)C(=O)O4)C3)c2n1` [Example 1, 6-{(R)-5-[3-(6-methoxy-[1,5]naphthyridin-4-yloxy)-azetidin-1-ylmethyl]-2-oxo-oxazolidin-3-yl}-4H-benzo[1,4]thiazin-3-one] cannot be ordered by MIC: no more than 0.031 mg/L for the first, no more than 0.031 mg/L for the second.

`COc1ccc2nccc(NC(=O)C3CN(C[C@@H]4CN(c5ccc6c(c5)NC(=O)CS6)C(=O)O4)C3)c2n1` [Example 7, 1-[(R)-2-oxo-3-(3-oxo-3,4-dihydro-2H-benzo[1,4]thiazin-6-yl)-oxazolidin-5-ylmethyl]-azetidine-3-carboxylic acid (6-methoxy-[1,5]naphthyridin-4-yl)-amide] and `COc1ccc2nccc(NCC3CN(C[C@@H]4CN(c5ccc6c(c5)NC(=O)CS6)C(=O)O4)C3)c2n1` [Example 14, 6-((R)-5-{3-[(6-methoxy-[1,5]naphthyridin-4-ylamino)-methyl]-azetidin-1-ylmethyl}-2-oxo-oxazolidin-3-yl)-4H-benzo[1,4]thiazin-3-one] cannot be ordered by MIC: no more than 0.031 mg/L for the first, no more than 0.031 mg/L for the second.

Compared with `COc1cnc2cccc(C(O)C3(O)CCN(C[C@@H]4CN(c5ccc6c(c5)NC(=O)CS6)C(=O)O4)CC3)c2n1` (mixture of isomers) [Example 13, 6-((R)-5-{4-hydroxy-4-[(RS)-hydroxy-(3-methoxy-quinoxalin-5-yl)-methyl]-piperidin-1-ylmethyl}-2-oxo-oxazolidin-3-yl)-4H-benzo[1,4]thiazin-3-one], `COc1ccc2ncnc(O[C@H]3CCN(C[C@@H]4CN(c5ccc6c(c5)NC(=O)CS6)C(=O)O4)C3)c2c1` [Example 3, 6-{(R)-5-[(S)-3-(6-methoxy-quinazolin-4-yloxy)-pyrrolidin-1-ylmethyl]-2-oxo-oxazolidin-3-yl}-4H-benzo[1,4]thiazin-3-one] is lower in MIC: 0.5 mg/L for the first, no more than 0.031 mg/L for the second.

`COc1ccc2ncnc(O[C@@H]3CN(C[C@@H]4CN(c5ccc6c(c5)NC(=O)CS6)C(=O)O4)C[C@H]3N)c2c1` (relative stereo) [Example 18, 6-{(R)-5-[(3R*,4R*)-3-amino-4-(6-methoxy-quinazolin-4-yloxy)-pyrrolidin-1-ylmethyl]-2-oxo-oxazolidin-3-yl}-4H-benzo[1,4]thiazin-3-one] and `COc1ccc2ncnc(O[C@H]3CN(C[C@@H]4CN(c5ccc6c(c5)NC(=O)CS6)C(=O)O4)C[C@H]3O)c2c1` (relative stereo) [Example 21, 6-{(R)-5-[(3R*,4S*)-3-hydroxy-4-(6-methoxy-quinazolin-4-yloxy)-pyrrolidin-1-ylmethyl]-2-oxo-oxazolidin-3-yl}-4H-benzo[1,4]thiazin-3-one] cannot be ordered by MIC: no more than 0.031 mg/L for the first, no more than 0.031 mg/L for the second.
